From US20250177422A1 (ZYLORION HEALTH INC., priority 2023, published 2025)

Assays:
[1] = system: BDNF; assay: Brain levels of BDNF in mice after acute treatment; format: in vivo; conditions: 1 hour after oral administration, Co-crystal Form A 3 mg/kg, Aripiprazole 0.3 mg/kg, FIG. 5
[2] = system: mice; assay: Cognitive performance, the Y-maze; format: in vivo; conditions: oral, 15 days, FIG. 4
Description: Cognitive performance, the Y-maze. Mice will be acclimated to a Y-maze having two familiar arms and one unfamiliar arm 1 day prior to testing (i.e., day-1). One the days of testing mice will be placed in the Y-maze and allowed to freely explore for 5 minutes. Behaviours scored will include total locomotion, time spent in each arm, number of arm entries, and correct alternations between the novel arm and familiar arms. A pro-cognitive effect will be reflected by increased time spent in the novel arm and increased percent correct alternations.

[3] = system: neuronal progenitor/stem cell levels in mice brain; assay: Neuronal progenitor/stem cell levels in mice brain (immunohistochemistry); format: in vivo; conditions: 14 days oral; co-crystal form A 3 mg/kg, aripiprazole 0.3 mg/kg; FIG. 6
[4] = system: active neurons; assay: Neuronal activation in mice (number of active neurons); conditions: 21 days oral, co-crystal form A 3 mg/kg, aripiprazole 0.3 mg/kg, FIG. 7
Description: For immunohistochemistry sampling, EdU (5-Ethynyl-2′-deoxyuridine, Lumiprobe, 100 μg/g) was injected together with the drugs for the first 7 days. On the day following the 14-day treatment period, the brains of the mice were dissected for subsequent analyses, including immunohistochemistry and electrophysiology (E-phys).

SMILES: O=C1CCc2ccc(OCCCCN3CCN(c4cccc(Cl)c4Cl)CC3)cc2N1 [aripiprazole]
- brain levels of BDNF [1]: significant increase in brain levels of BDNF
- short-term and working memory (Y-maze), compared to control [2]: smaller but significant increase
- neuronal progenitor/stem cell levels in mice brain [3]: no significant effect
- change in neuronal activation (number of active neurons) [4]: significant increase
